Patent US10314308B2, “Microbiocidal benzoxaboroles” (SYNGENTA PARTICIPATIONS AG, priority 2015, dated 2019)

Key:
[1] = tested on: Phytophthora Infestans; experiment: whole plant or invertebrate; assay type: in vivo; conditions: in Solanum lycopersicum, foliar, read-out: disease control
[2] = tested on: Phaeosphaeria Nodorum (Septoria Nodorum); experiment: Phaeosphaeria nodorum (Septoria nodorum) / wheat / leaf disc preventative (glume blotch); assay type: in vivo; conditions: Parastagonospora nodorum, foliar, wheat leaf segments cv Kanzler, inoculated 2 days after application, assessed 5-7 days after application, read-out: disease control
Procedure, shortened: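 Wheat cv Kanzler leaf discs on agar were sprayed with formulated compound, then inoculated with spores 2 days later. Incubation at 20° C, 75% RH, 12/12 h light/dark; percent disease control versus untreated assessed 5-7 days after application.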

[3] = tested on: Pythium Ultimum; experiment: Pythium ultimum / liquid culture (seedling damping off); assay type: cell-based; conditions: Globisporangium ultimum, potato dextrose broth, 24° C., 2-3 days after application, read-out: disease control (inhibition of growth, photometrically)
[4] = tested on: Mycosphaerella Arachidis(Cercospora Arachidicola); experiment: Mycosphaerella arachidis (Cercospora arachidicola) / liquid culture (early leaf spot); assay type: cell-based; conditions: PDB potato dextrose broth, 24° C., 4-5 days after application, read-out: disease control (inhibition of growth, photometrically)
Procedure, shortened: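 Cryo-stored conidia in potato dextrose broth were added to compound in DMSO in microtiter plates. After incubation at 24 °C, growth inhibition was measured photometrically 4-5 days after application.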

[5] = tested on: Mycosphaerella Graminicola(Septoria Tritici); experiment: Mycosphaerella graminicola (Septoria tritici) / liquid culture (Septoria blotch); assay type: cell-based; conditions: Zymoseptoria tritici, PDB potato dextrose broth, 24° C., 4-5 days after application, read-out: disease control (inhibition of growth, photometrically)
Procedure, shortened: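 Cryostored conidia mixed into potato dextrose broth and added to compound dispensed from DMSO solution. Incubation at 24 °C; growth inhibition read photometrically 4-5 days after application.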

[6] = tested on: Gaeumannomyces Graminis; experiment: Gaeumannomyces graminis / liquid culture (take-all of cereals); assay type: cell-based; conditions: PDB potato dextrose broth, 24° C., 4-5 days after application, read-out: disease control (inhibition of growth, photometrically)
Procedure, shortened: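 Mycelial fragments from cryogenic storage mixed into potato dextrose broth and added to test compound in DMSO. Incubated at 24° C; growth inhibition read photometrically 4-5 days after application.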

[7] = tested on: Monographella Nivalis(Microdochium Nivale); experiment: Monographella nivalis (Microdochium nivale) / liquid culture (foot rot cereals); assay type: cell-based; conditions: PDB potato dextrose broth, 24° C., 4-5 days after application, read-out: disease control (inhibition of growth, photometrically)
Procedure, shortened: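 Conidia from cryogenic storage mixed into potato dextrose broth, added to compound pre-dispensed from DMSO solution. Incubated at 24° C.; growth inhibition read photometrically 4-5 days after application.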

[8] = tested on: Fusarium Culmorum; experiment: microbe, parasite or virus in culture; assay type: cell-based; conditions: read-out: disease control (inhibition of growth, photometrically)
[9] = tested on: Sclerotinia Sclerotiorum; experiment: Sclerotinia sclerotiorum / liquid culture (cottony rot); assay type: cell-based; conditions: PDB potato dextrose broth, 24° C., 3-4 days after application, read-out: disease control (inhibition of growth, visually)
Procedure, shortened: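 Mycelial fragments from fresh liquid culture in potato dextrose broth added to test compounds in DMSO. Incubated at 24° C; growth inhibition scored visually 3-4 days after application.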

[10] = tested on: Plasmopara Viticola; experiment: whole plant or invertebrate; assay type: in vivo; conditions: foliar, read-out: disease control
[11] = tested on: Puccinia Recondita f. sp. Tritici; experiment: Puccinia recondita f. sp. tritici / wheat / leaf disc preventative (brown rust); assay type: in vivo; conditions: foliar, wheat leaf segments cv Kanzler, inoculated 1 day after application, assessed 7-9 days after application, read-out: disease control
Protocol: 3 Puccinia Recondita f. sp. Tritici/Wheat/Leaf Disc Preventative (Brown Rust) Wheat leaf segments cultivated variety (cv) Kanzler were placed on agar in 24-well plates and sprayed with formulated test compound diluted in water. The leaf disks were inoculated with a spore suspension of the fungus 1 day after application. The inoculated leaf segments were incubated at 19° C. and 75% relative humidity under a light regime of 12/12 h (light/dark) in a climate cabinet and the activity of a compound was assessed as percent disease control compared to untreated when an appropriate level of disease damage appears in untreated check leaf segments (7-9 days after application).

[12] = tested on: Thanatephorus Cucumeris(Rhizoctonia Solani); experiment: Thanatephorus cucumeris (Rhizoctonia solani) / liquid culture (foot rot, damping-off); assay type: cell-based; conditions: PDB potato dextrose broth, 24° C., 3-4 days after application, read-out: disease control (inhibition of growth, photometrically)
Procedure, shortened: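 Mycelial fragments in potato dextrose broth exposed to compound (DMSO solution) at 200 ppm. Incubation at 24° C.; growth inhibition measured photometrically 3-4 days after application.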

[13] = tested on: Glomerella Lagenarium(Colletotrichum Ladenarium); experiment: Glomerella lagenarium (Colletotrichum lagenarium) / liquid culture (anthracnose); assay type: cell-based; conditions: PDB potato dextrose broth, 24° C., 3-4 days after application, read-out: disease control (inhibition of growth, photometrically)
Procedure, shortened: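 Cryostored conidia were suspended in potato dextrose broth and added to compound in DMSO. Cultures were incubated at 24 °C. Growth inhibition was measured photometrically 3–4 days after application.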

[14] = tested on: Botryotinia Fuckeliana(Botrytis Cinerea); experiment: Botryotinia fuckeliana (Botrytis cinerea) / liquid culture (gray mould); assay type: cell-based; conditions: Vogels broth, 24° C., 3-4 days after application, read-out: disease control (inhibition of growth, photometrically)
Protocol: 9 Botryotinia Fuckeliana(Botrytis Cinerea)/Liquid Culture (Gray Mould) Conidia of the fungus from cryogenic storage were directly mixed into nutrient broth (Vogels broth). After placing a DMSO solution of test compound into a 96-well microtiter plate, the nutrient broth containing the fungal spores was added. The test plates were incubated at 24° C. and the inhibition of growth was determined photometrically 3-4 days after application.

| Structure (SMILES) | pest or weed control at 200 ppm [1] [%] | pest or weed control at 200 ppm [2] [%] | inhibition at 20 ppm [3] [%] | inhibition at 20 ppm [4] [%] | inhibition at 20 ppm [5] [%] | inhibition at 20 ppm [6] [%] | inhibition at 20 ppm [7] [%] | inhibition at 20 ppm [8] [%] | inhibition at 20 ppm [9] [%] | melting point [°C] | pest or weed control at 200 ppm [10] [%] | pest or weed control at 200 ppm [11] [%] | inhibition at 20 ppm [12] [%] | inhibition at 20 ppm [13] [%] | inhibition at 20 ppm [14] [%] |
| --- | --- | --- | --- | --- | --- | --- | --- | --- | --- | --- | --- | --- | --- | --- | --- |
| OB1OCc2cc(F)c(-c3cnoc3)cc21 [Compound 11] | ≥ 80 | ≥ 80 | ≥ 80 | ≥ 80 | ≥ 80 | ≥ 80 | ≥ 80 | ≥ 80 | ≥ 80 | 230 to 232 |  |  |  |  |  |
| Cc1cc(-c2cc3c(cc2F)COB3O)c(C#N)o1 [Compound 56] | ≥ 80 |  | ≥ 80 | ≥ 80 |  | ≥ 80 | ≥ 80 |  |  |  | ≥ 80 | ≥ 80 | ≥ 80 |  |  |
| O/N=C/c1ccc(-c2cc3c(cc2F)COB3O)o1 [Compound 27] | ≥ 80 |  | ≥ 80 | ≥ 80 |  |  | ≥ 80 |  |  | 200 to 220 | ≥ 80 |  |  | ≥ 80 |  |
| OB1OCc2cc(F)c(-c3nnco3)cc21 [Compound 95] | ≥ 80 |  | ≥ 80 | ≥ 80 |  | ≥ 80 |  |  | ≥ 80 | 237 to 239 |  |  |  | ≥ 80 |  |
| Cc1noc(-c2cc3c(cc2F)COB3O)n1 [Compound 30, 5-(5-fluoro-1-hydroxy-3H-2,1-benzoxaborol-6-yl)-3-methyl-1,2,4-oxadiazole] | ≥ 80 |  | ≥ 80 | ≥ 80 | ≥ 80 | ≥ 80 | ≥ 80 |  | ≥ 80 | 200 to 202 |  |  |  | ≥ 80 | ≥ 80 |
| OB1OCc2cc(F)c(-c3ncon3)cc21 [Compound 97] | ≥ 80 | ≥ 80 | ≥ 80 | ≥ 80 | ≥ 80 | ≥ 80 | ≥ 80 | ≥ 80 | ≥ 80 | 226 to 228 |  |  | ≥ 80 | ≥ 80 | ≥ 80 |
| OB1OCc2cc(F)c(-c3ccc(Cl)nc3)cc21 [Compound 13, 2-chloro-5-(5-fluoro-1-hydroxy-3H-2,1-benzoxaborol-6-yl)pyridine] | ≥ 80 |  | ≥ 80 |  |  | ≥ 80 | ≥ 80 |  |  | 213 to 215 | ≥ 80 |  |  |  |  |
| N#Cc1cscc1-c1cc2c(cc1Cl)COB2O [Compound 42] | ≥ 80 | ≥ 80 | ≥ 80 | ≥ 80 | ≥ 80 | ≥ 80 | ≥ 80 | ≥ 80 | ≥ 80 |  | ≥ 80 |  |  | ≥ 80 |  |
| OB1OCc2cc(F)c(-c3ncno3)cc21 [Compound 29] | ≥ 80 | ≥ 80 | ≥ 80 | ≥ 80 | ≥ 80 | ≥ 80 | ≥ 80 | ≥ 80 | ≥ 80 | 204 to 206 |  |  | ≥ 80 | ≥ 80 | ≥ 80 |
| OB1OCc2cc(Cl)c(-c3nnco3)cc21 [Compound 94] | ≥ 80 | ≥ 80 | ≥ 80 | ≥ 80 | ≥ 80 | ≥ 80 |  |  | ≥ 80 | 202 to 204 |  |  |  | ≥ 80 |  |
